The values that follow come from patent US9573953B2, “Heteroaromatic compounds as PI3 kinase modulators and methods of use” (CALITOR SCIENCES, LLC, priority 2013, dated 2017).

pIC50: −log10 of the molar value.

Series [1] can be described thus: Compound stability in human liver microsomes. As to conditions: for half-life at 5 μM / CLint scaled at 5 μM: pH 7.4; for CLint scaled at 5 μM: human liver microsomes, in vivo CLint extrapolated. In kind it is in vitro ADME. The method, then: Human or rat liver microsomes incubations were conducted in duplicate in polypropylene tubes. The typical incubation mixtures consisted of human or rat liver microsomes (0.5 mg protein/mL), compounds of interest (5 μM) and NADPH (1.0 mM) in a total volume of 200 μL potassium phosphate buffer (PBS, 100 mM, pH=7.4). Compounds were dissolved in DMSO and diluted with PBS such that the final concentration of DMSO was 0.05%. The enzymatic reactions were commenced with the addition of protein after a 3-min preincubation and incubated in a water bath open to the air at 37° C. Reactions were terminated at various time points (0, 5, 10, 15, 30, 60 min) by adding equal volume of ice-cold acetonitrile. The samples were stored at −80° C. until LC/MS/MS assays.
The concentrations of compounds in the incubation mixtures of human or rat liver microsomes were determined by a LC/MS/MS method. The ranges of the linearity in the concentration range were determined for each tested compounds.
A parallel incubation was performed using denatured microsomes as the negative control, and reactions were terminated at various time points (0, 15, 60 min) after incubation at 37° C.
Dextromethorphan (70 μM) was selected as the positive control, and reactions were terminated at various time points (0, 5, 10, 15, 30, 60 min) after incubation at 37° C. Both positive and negative control samples were included in each assay to ensure the integrity of the microsomal incubation system.
The concentrations of compounds in human or rat liver microsome incubations were plotted as a percentage of the relevant zero time point control for each reaction. The in vivo CLint were extrapolated (ref.: Naritomi Y, Terashita S, Kimura S, Suzuki A, Kagayama A, Sugiyama Y. “Prediction of human hepatic clearance from in vivo animal experiments and in vitro metabolic studies with liver microsomes from animals and humans”, Drug Metabolism and Disposition, 2001, 29, 1316-1324).

The next series deals with T1, PI3K p110β/p85α (h) (Homo sapiens, UniProt P42338).
T1 construct: purchased Millipore UK Ltd (assays run there as a service)
T1 sequence (P42338 whole entry): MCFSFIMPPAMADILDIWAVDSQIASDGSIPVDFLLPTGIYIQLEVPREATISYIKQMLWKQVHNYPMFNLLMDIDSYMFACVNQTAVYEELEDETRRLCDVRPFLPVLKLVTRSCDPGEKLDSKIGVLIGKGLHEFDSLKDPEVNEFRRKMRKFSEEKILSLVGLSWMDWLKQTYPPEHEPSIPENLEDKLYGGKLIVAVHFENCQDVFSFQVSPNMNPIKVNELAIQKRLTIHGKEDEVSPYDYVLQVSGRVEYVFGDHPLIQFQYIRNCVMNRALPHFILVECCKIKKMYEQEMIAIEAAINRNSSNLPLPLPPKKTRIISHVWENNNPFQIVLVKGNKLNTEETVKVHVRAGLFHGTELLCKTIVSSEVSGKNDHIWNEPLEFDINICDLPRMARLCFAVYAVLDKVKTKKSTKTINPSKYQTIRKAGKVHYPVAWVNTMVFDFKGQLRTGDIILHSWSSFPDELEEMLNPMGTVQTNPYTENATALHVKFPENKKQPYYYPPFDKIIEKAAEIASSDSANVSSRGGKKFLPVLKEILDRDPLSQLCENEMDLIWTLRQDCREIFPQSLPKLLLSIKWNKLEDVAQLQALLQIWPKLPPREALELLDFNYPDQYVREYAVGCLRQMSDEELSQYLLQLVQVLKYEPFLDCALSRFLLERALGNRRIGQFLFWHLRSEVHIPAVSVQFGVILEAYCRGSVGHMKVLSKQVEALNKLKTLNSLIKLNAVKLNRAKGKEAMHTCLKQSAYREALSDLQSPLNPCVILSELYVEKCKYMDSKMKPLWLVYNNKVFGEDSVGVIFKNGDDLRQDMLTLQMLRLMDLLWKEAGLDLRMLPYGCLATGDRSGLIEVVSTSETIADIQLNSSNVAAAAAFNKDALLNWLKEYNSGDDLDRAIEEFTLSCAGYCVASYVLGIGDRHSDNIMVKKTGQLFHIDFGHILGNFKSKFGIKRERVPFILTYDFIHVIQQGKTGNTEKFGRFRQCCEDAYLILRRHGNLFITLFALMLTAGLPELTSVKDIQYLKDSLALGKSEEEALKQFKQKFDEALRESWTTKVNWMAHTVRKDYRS
T1 sequence (P27986 whole entry partner): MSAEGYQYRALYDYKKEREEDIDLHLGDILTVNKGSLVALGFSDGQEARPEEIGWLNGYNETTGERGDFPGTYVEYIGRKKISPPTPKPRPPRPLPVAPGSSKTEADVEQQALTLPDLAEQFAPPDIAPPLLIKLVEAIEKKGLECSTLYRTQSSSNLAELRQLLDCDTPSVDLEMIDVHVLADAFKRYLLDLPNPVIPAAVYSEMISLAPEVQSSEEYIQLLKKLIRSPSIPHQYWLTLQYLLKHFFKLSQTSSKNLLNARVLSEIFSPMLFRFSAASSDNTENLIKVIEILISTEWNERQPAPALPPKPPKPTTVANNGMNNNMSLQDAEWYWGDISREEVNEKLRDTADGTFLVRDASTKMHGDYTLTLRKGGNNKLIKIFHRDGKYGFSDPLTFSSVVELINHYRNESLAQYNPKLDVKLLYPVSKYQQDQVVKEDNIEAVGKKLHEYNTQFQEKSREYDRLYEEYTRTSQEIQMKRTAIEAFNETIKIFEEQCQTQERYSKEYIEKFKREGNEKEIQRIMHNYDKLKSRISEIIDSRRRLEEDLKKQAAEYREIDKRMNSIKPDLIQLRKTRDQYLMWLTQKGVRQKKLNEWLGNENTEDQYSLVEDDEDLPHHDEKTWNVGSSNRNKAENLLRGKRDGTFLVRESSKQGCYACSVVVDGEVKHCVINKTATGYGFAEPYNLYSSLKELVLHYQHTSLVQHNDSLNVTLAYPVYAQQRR
In words: PI3K p110β/p85α (h) non-radioactive (HTRF) assay. In kind it is biochemical. How it is done: PI3K p110β/p85α (h) [Non-Radioactive Assay]
(§1) PI3K (p110β/p85α) (h) is incubated in assay buffer containing 10 μM phosphatidylinositol-4,5-bisphosphate and MgATP (concentration as required). The reaction is initiated by the addition of the MgATP mix. After incubation for 30 minutes at room temperature, the reaction is stopped by the addition of stop solution containing EDTA and biotinylated phosphatidylinositol-3,4,5-trisphosphate. Finally, detection buffer is added, which contains europium-labelled anti-GST monoclonal antibody, GST-tagged GRP1 PH domain and streptavidin-allophycocyanin. The plate is then read in time-resolved fluorescence mode and the homogenous time-resolved fluorescence (HTRF) signal is determined according to the formula HTRF=10000×(Em665 nm/Em620 nm).
(§2) The kinase assays described herein were performed at Millipore UK Ltd, Dundee Technology Park, Dundee DD2 1SW, UK.

The target of another series is T2, PI3K (p110δ/p85α) (h) (Homo sapiens, UniProt O00329).
T2 construct: purchased Millipore UK Ltd (assays run there as a service)
T2 sequence (O00329 whole entry): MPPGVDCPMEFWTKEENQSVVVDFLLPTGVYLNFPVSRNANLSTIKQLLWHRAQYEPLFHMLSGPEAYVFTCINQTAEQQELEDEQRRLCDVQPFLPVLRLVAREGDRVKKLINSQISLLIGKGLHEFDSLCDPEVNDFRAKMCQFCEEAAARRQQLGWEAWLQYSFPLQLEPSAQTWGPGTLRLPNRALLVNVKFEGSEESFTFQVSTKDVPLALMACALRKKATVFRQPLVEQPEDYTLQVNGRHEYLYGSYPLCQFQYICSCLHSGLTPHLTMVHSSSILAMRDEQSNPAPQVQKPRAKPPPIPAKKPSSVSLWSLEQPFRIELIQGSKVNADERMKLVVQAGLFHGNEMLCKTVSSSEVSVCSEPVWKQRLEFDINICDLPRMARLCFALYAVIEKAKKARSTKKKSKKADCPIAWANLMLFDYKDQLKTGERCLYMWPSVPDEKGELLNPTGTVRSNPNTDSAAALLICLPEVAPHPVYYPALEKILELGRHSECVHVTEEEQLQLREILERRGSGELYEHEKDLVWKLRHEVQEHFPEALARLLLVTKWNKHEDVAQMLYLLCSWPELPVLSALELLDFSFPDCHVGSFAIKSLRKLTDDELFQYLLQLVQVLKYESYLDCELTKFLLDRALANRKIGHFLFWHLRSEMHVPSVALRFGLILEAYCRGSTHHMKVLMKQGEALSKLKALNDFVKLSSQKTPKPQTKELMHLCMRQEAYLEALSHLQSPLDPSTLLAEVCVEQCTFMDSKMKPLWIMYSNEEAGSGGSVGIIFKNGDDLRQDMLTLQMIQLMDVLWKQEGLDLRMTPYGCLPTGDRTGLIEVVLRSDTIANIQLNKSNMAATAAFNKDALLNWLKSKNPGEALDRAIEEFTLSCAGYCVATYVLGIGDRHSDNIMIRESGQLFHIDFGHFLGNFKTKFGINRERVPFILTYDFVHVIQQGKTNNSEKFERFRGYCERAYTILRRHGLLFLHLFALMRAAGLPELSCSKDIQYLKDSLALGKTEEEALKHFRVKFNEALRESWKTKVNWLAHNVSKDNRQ
T2 sequence (P27986 whole entry partner): as the sequence (P27986 whole entry partner) above
Briefly: PI3K (p110δ/p85α) (h) non-radioactive (HTRF) assay. In kind it is biochemical. The method, then:
PI3K (p110δ/p85α) (h) [Non-Radioactive Assay]
as §1, with “(p110δ/p85α)” for “(p110β/p85α)”
as §2

Series [2] in a line: Pharmacokinetic profiles in mice. As to conditions: Mouse; for F: iv dose 1 mg/kg, oral dose generally 5 or 10 mg/kg; for clearance / AUC(0-t) / half-life / Vd: iv dosing, 1 mg/kg; for AUC(0-t) / half-life / Vd: plasma; for Vd: read-out: Vss. It is filed as in vivo. The method, then: (§3) The compounds disclosed herein are assessed in pharmacokinetic studies in mice, rats, dogs or monkeys. The compounds are administered as a water solution, 2% HPMC+1% TWEEN®80 in water solution, 5% DMSO+5% solutol in saline, 4% MC suspension or capsule. For the intravenous administration, the animals are generally given at 1 or 2 mg/kg dose. For the oral (p.o.) dosing, mice and rats are generally given 5 or 10 mg/kg dose, and dogs and monkeys are generally given 10 mg/kg dose. The blood samples (0.3 mL) are drawn at 0.25, 0.5, 1.0, 2.0, 3.0, 4.0, 6.0, 8.0, 12 and 24 h time points or 0.083, 0.25, 0.5, 1.0, 2.0, 4.0, 6.0, 8.0 and 24 h time points and centrifuged at 3,000 or 4000 rpm for 2 to 10 min. The plasma solutions are collected and stored at −20° C. or −70° C. until analyzed by LC/MS/MS as described above.

Series [3] in a line: Pharmacokinetic profiles in dogs. It is filed as in vivo. Particulars: Dog; for F: iv dose 1 mg/kg, oral dose generally 10 mg/kg; for clearance / AUC(0-t) / half-life / Vd: iv dosing, 1 mg/kg; for AUC(0-t) / half-life / Vd: plasma; for Vd: read-out: Vss. The method, then:
as §3

The nature of series [4]: Pharmacokinetic profiles in monkeys. It is filed as in vivo. Particulars: Monkey; for F: iv dose 1 mg/kg, oral dose generally 10 mg/kg; for Cl/F / AUC(0-t) / half-life / Vd: iv dosing, 1 mg/kg; for AUC(0-t) / half-life / Vd: plasma; for Vd: read-out: Vss. How it is done: as §3
The target of the next series is T3, PI3K p110α/p85α (h) (Homo sapiens, UniProt P42336).
T3 construct: purchased Millipore UK Ltd (assays run there as a service)
T3 sequence (P42336 whole entry): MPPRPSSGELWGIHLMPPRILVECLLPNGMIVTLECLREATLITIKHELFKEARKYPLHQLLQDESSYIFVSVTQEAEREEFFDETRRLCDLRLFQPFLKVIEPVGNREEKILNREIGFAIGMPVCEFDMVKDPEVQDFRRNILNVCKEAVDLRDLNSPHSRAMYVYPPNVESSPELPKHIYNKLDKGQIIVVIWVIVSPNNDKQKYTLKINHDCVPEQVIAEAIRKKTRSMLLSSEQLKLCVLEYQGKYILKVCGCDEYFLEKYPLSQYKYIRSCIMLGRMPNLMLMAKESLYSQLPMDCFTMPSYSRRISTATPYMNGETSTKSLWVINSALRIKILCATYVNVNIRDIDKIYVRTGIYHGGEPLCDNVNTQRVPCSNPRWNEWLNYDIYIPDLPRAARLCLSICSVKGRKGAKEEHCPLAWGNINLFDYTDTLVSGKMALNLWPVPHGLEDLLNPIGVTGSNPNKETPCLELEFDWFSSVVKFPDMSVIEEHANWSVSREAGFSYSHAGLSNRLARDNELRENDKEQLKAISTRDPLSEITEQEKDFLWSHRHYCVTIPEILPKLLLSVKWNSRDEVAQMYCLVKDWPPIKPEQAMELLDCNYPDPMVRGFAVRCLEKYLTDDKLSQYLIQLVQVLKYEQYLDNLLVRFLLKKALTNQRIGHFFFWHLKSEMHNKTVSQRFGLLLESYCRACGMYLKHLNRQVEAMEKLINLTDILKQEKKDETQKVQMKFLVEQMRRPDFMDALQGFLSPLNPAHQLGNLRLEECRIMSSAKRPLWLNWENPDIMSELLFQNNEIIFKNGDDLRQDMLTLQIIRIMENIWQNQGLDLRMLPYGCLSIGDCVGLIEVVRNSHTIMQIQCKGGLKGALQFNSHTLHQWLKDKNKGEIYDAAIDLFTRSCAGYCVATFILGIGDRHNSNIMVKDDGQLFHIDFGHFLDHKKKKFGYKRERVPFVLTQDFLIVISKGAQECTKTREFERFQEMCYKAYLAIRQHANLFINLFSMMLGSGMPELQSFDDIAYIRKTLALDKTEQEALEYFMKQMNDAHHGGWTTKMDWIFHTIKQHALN
T3 sequence (P27986 whole entry partner): as the sequence (P27986 whole entry partner) above
Briefly: PI3K p110α/p85α (h) non-radioactive (HTRF) assay. It is filed as biochemical. How it is done: PI3K p110α/p85α (h) [Non-Radioactive Assay]
as §1, with “p110α/p85α” for “(p110β/p85α)”, “phosphatidylinositol 4,5-bisphosphate” for “phosphatidylinositol-4,5-bisphosphate”, “ATP solution.” for “MgATP mix.”, “streptavidin allophycocyanin.” for “streptavidin-allophycocyanin.”
as §2

Setting [5] is: human liver microsomes 0.5 mg protein/mL, compound 5 μM, NADPH, 37° C.

`COc1ncc(-c2ccn3ncc(C#CCO)c3n2)cc1NS(=O)(=O)c1ccc(F)cc1F` [Ex. 1, 2,4-difluoro-N-(5-(3-(3-hydroxyprop-1-yn-1-yl)pyrazolo[1,5-a]pyrimidin-5-yl)-2-methoxypyridin-3-yl)benzenesulfonamide]: in series [1] (setting [5]), the half-life at 5 μM is 11.8 h. In addition, the intrinsic clearance (CLint scaled) at 5 μM in series [1] is 2.45 mL/min/kg. Besides, the pIC50 on PI3K p110β/p85α (h) was 7.08; on PI3K (p110δ/p85α) (h) it was 8.30.

With `COc1ncc(-c2ccn3ncc(C#N)c3n2)cc1NS(=O)(=O)c1ccc(F)cc1F` [Ex. 2, N-(5-(3-cyanopyrazolo[1,5-a]pyrimidin-5-yl)-2-methoxypyridin-3-yl)-2,4-difluorobenzenesulfonamide], in series [1] (setting [5]), the T1/2 result is “∞”. In addition, the pIC50 was 7.35 at PI3K p110β/p85α (h) and 8.30 at PI3K (p110δ/p85α) (h).

Regarding `COc1ncc(-c2ccn3ncc(C#N)c3c2)cc1NS(=O)(=O)c1ccc(F)cc1F` [Ex. 3, N-(5-(3-cyanopyrazolo[1,5-a]pyridin-5-yl)-2-methoxypyridin-3-yl)-2,4-difluorobenzenesulfonamide], the half-life at 5 μM in series [1] (setting [5]) came out at 40.1 h. Further, the CLint scaled at 5 μM in series [1] is 0.72 mL/min/kg. In series [2], this molecule showed an F of 79.3%, a clearance of 0.33 mL/min/kg, an AUC(0-t) of 57100 ng·h/mL and a half-life of 5.45 h. In series [2], the Vd is 0.13 L/kg. Further, in series [3], the F is listed as 108.5%, the clearance was 4.5 mL/min/kg, the AUC(0-t) is 3670 ng·h/mL and the half-life is 0.67 h. Moreover, the Vd in series [3] worked out at 0.23 L/kg. Also, in series [4], the F was 59.8%, the Cl/F worked out at 2.67 mL/min/kg, the AUC(0-t) is 5980 ng·h/mL and the half-life is 9.7 h. Also, in series [4], the Vd is 0.92 L/kg. Also, the pIC50 on PI3K p110β/p85α (h) was 7.39. The negative-log IC50 (pIC50) on PI3K (p110δ/p85α) (h) was 8.70.

In turn, `COc1ncc(-c2ccn3ncc(C#CCO)c3c2)cc1NS(=O)(=O)c1ccc(F)cc1F` [Ex. 4, 2,4-difluoro-N-(5-(3-(3-hydroxyprop-1-yn-1-yl)pyrazolo[1,5-a]pyridin-5-yl)-2-methoxypyridin-3-yl)benzenesulfonamide] returned a half-life at 5 μM in series [1] (setting [5]) of 4.99 h. In addition, the CLint scaled at 5 μM in series [1] is 5.81 mL/min/kg. For the same molecule, in series [2], the F is 70.0%, the clearance stood at 2.83 mL/min/kg, the AUC(0-t) amounted to 5810 ng·h/mL and the half-life was 1.11 h. The Vd in series [2] worked out at 0.18 L/kg. For the same molecule, in series [3], the F came to 108.5%, the clearance turned out to be 1.83 mL/min/kg, the AUC(0-t) was 9070 ng·h/mL and the half-life was 6.13 h. Further, the Vd in series [3] is 0.19 L/kg. In series [4], this molecule had an F of 24.0%, a Cl/F of 3 mL/min/kg, an AUC(0-t) of 5740 ng·h/mL and a half-life of 4.64 h. Moreover, the Vd in series [4] is 0.42 L/kg. Besides, the pIC50 on PI3K p110α/p85α (h) is 9.00. In addition, the pIC50 at PI3K p110β/p85α (h) was 7.66. Moreover, the pIC50 on PI3K (p110δ/p85α) (h) was 9.00.
